Test [1] deals with Jurkat HIV-luciferase clones. The experiment in a line: Jurkat latency reversal assay. The format is cell-based. Particulars: Homo sapiens, 48 h; Jurkat latency reversal assay potency; read-out: Jurkat pEC50 (converted). The method in brief:
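Pooled Jurkat clones C16, 115 and N6, each carrying one or two integrated HIV-luciferase proviruses and kept in 500 nM EFV, were exposed to 3-fold, 14-point compound titrations in duplicate (10 μM top, 0.5% DMSO) for 48 h at 37° C. Luciferase luminescence was fitted by four-parameter logistic regression for EC50 and maximal percent activation versus vehicle.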

The target of a further test is cIAP1-BIR3 (Homo sapiens (Human), UniProt Q13490). Nature of the test: BIR binding assay (FRET competition), cIAP1 BIR3. Particulars: for cIAP1 BIR3 vs BIR2 separation window: fold separation (FS) for cIAP1. The method in brief: (§1)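 Compounds tested as 15-point, 3-fold series displacing 200 nM AlexaFluor647-labelled SMAC peptide from His-tagged BIR domain (cIAP1-BIR3 50 nM; cIAP1-BIR2 and cIAP2-BIR2 325 nM; XIAP-BIR3 100 nM), pH 7.4, 60 min. Eu-W1024 (2 nM) added 30 min; emission ratio fitted for IC50.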
Chain of cIAP1-BIR3 (Q13490 253-363): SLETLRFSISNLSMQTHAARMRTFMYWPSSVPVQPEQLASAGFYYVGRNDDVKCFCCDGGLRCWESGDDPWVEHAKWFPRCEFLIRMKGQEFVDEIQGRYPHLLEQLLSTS

The next test addresses cIAP1-BIR2 (Homo sapiens (Human), UniProt Q13490). The experiment in a line: BIR binding assay (FRET competition), cIAP1 BIR2. Put shortly:
as §1

For a further test, the target named is cIAP2-BIR3 (Homo sapiens (Human), UniProt Q13489). Nature of the test: BIR binding assay (FRET competition), cIAP2 BIR3. As to conditions: for cIAP2 BIR3 vs BIR2 separation window: fold separation (FS) for cIAP2.
Chain of cIAP2-BIR3 (Q13489 238-349): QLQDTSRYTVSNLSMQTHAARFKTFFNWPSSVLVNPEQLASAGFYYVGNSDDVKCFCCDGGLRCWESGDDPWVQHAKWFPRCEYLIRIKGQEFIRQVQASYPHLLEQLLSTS
The target of the next test is cIAP2-BIR2 (Homo sapiens (Human), UniProt Q13489). The experiment in a line: BIR binding assay (FRET competition), cIAP2 BIR2. The method in brief:
as §1

The target of a further test is XIAP-BIR3 (Homo sapiens (Human), UniProt P98170). Nature of the test: BIR binding assay (FRET competition), XIAP BIR3. Particulars: for XIAP BIR3 vs BIR2 separation window: fold separation (FS) for XIAP. The method in brief:
as §1

The target in the next test is XIAP-BIR2 (Homo sapiens (Human), UniProt P98170). The experiment in a line: BIR binding assay (FRET competition), XIAP BIR2. As to conditions: read-out: XIAP BIR2 (pIC50) (converted). Put shortly:
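Competitive TR-FRET used His-tagged XIAP-BIR2 (200 nM) and 200 nM AlexaFluor647-labelled AVPIAQKSE SMAC peptide in HEPES buffer pH 7.4 with CHAPS, glycerol and DTT, incubated 60 min before 30 min with 2 nM Eu-W1024. The 615/665 nm ratio from a 15-point, 3-fold series was fit with a four-parameter model for IC50/pIC50.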

Where two headings read alike, the source gives them in different places.

Chain of cIAP2-BIR2 (Q13489 158-242): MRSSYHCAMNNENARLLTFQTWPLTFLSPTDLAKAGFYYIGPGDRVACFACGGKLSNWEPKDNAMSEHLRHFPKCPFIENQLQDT
Chain of XIAP-BIR3 (P98170 241-356): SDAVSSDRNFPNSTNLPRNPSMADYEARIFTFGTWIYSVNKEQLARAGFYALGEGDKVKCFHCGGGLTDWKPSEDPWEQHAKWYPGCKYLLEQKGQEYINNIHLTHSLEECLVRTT
Chain of XIAP-BIR2 (P98170 124-240): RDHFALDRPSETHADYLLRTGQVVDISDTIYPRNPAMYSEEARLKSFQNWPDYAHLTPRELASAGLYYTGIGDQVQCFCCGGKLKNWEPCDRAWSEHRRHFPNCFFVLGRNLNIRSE
Chain of cIAP1-BIR2 (Q13490 173-257): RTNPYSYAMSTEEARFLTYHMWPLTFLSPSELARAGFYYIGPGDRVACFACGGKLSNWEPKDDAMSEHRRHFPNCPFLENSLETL

Turning to `C[C@@H]1CN(CC(=O)N2CC(C)(C)c3[nH]c(=O)c(Cc4ccc(F)cc4)cc32)[C@@H](CN2CCC(CCN(C)C(=O)c3ccc(C(=O)N(C)CCC4CCN(C[C@H]5CN[C@H](C)CN5CC(=O)N5CC(C)(C)c6[nH]c(=O)c(Cc7ccc(F)cc7)cc65)CC4)cc3)CC2)CN1` [Example 104, N^1,N^4-bis(2-(1-(((2R,5R)-1-(2-(6-(4-fluorobenzyl)-3,3-dimethyl-5-oxo-2,3,4,5-tetrahydro-1H-pyrrolo[3,2-b]pyridin-1-yl)-2-oxoethyl)-5-methylpiperazin-2-yl)methyl)piperidin-4-yl)ethyl)-N^1,N^4-dimethylterephthalamide], the EC50 in test [1] was 63.1 to 316 nM. Further, the IC50 on cIAP1-BIR3 is 1.38 to 7.94 nM; at cIAP1-BIR2, 1000 to 3160 nM; on cIAP2-BIR3, 1.38 to 7.94 nM; on cIAP2-BIR2 it was 1000 to 3160 nM; at XIAP-BIR3, 1.38 to 7.94 nM; at XIAP-BIR2 (FRET competition binding) it was 10000 to 51300 nM. Besides, the “cIAP1 BIR3 vs BIR2 separation window” value on cIAP1-BIR3 was “+++ (10,000>FS>1,000)”. The “cIAP2 BIR3 vs BIR2 separation window” value at cIAP2-BIR3 is given as “+++ (10,000>FS>1,000)”. Moreover, the “XIAP BIR3 vs BIR2 separation window” value at XIAP-BIR3 is “++++ (FS>10,000)”.
With `Cc1ccc(Cc2cc3c([nH]c2=O)C(C)(C)CN3C(=O)CN2C[C@@H](C)NC[C@@H]2CN2CCO[C@H](C(=O)NCc3ccc(CNC(=O)[C@@H]4CN(C[C@H]5CN[C@H](C)CN5CC(=O)N5CC(C)(C)c6[nH]c(=O)c(Cc7ccc(C)cc7)cc65)CCO4)cc3)C2)cc1` [Compound 163, (2S,2′S)-N,N′-(1,4-phenylenebis(methylene))bis(4-(((2R,5R)-1-(2-(3,3-dimethyl-6-(4-methylbenzyl)-5-oxo-2,3,4,5-tetrahydro-1H-pyrrolo[3,2-b]pyridin-1-yl)-2-oxoethyl)-5-methylpiperazin-2-yl)methyl)morpholine-2-carboxamide)], the EC50 in test [1] is 12.6 to 63.1 nM. For the same molecule, the IC50 on cIAP1-BIR3 was 1.38 to 7.94 nM; on cIAP1-BIR2, 22.4 to 1000 nM; at cIAP2-BIR3 it was 1.38 to 7.94 nM; on cIAP2-BIR2, 22.4 to 1000 nM; at XIAP-BIR3, 7.94 to 15.8 nM; at XIAP-BIR2 (FRET competition), 10000 to 51300 nM. The “cIAP1 BIR3 vs BIR2 separation window” value at cIAP1-BIR3 is reported as “++ (1,000>FS>100)”. Moreover, at cIAP2-BIR3, the “cIAP2 BIR3 vs BIR2 separation window” value is listed as “+++ (10,000>FS>1,000)”. Moreover, the “XIAP BIR3 vs BIR2 separation window” value at XIAP-BIR3 is listed as “++++ (FS>10,000)”.
For `C[C@@H]1CN(CC(=O)N2CC(C)(C)c3[nH]c(=O)c(Cc4ccc(F)cc4)cc32)[C@@H](CN2CCO[C@H](C(=O)NCCCNC(=O)[C@@H]3CN(C[C@H]4CN[C@H](C)CN4CC(=O)N4CC(C)(C)c5[nH]c(=O)c(Cc6ccc(F)cc6)cc54)CCO3)C2)CN1` [Example 125, (2S,2'S)-N,N′-(Propane-1,3-diyl)bis(4-(((2R,5R)-1-(2-(6-(4-fluorobenzyl)-3,3-dimethyl-5-oxo-2,3,4,5-tetrahydro-1H-pyrrolo[3,2-b]pyridin-1-yl)-2-oxoethyl)-5-methylpiperazin-2-yl)methyl)morpholine-2-carboxamide)], the EC50 in test [1] was 63.1 to 316 nM. Moreover, the IC50 on cIAP1-BIR3 is 7.94 to 15.8 nM; on cIAP1-BIR2 it was 1000 to 3160 nM; on cIAP2-BIR3 it was 7.94 to 15.8 nM; on cIAP2-BIR2, 3160 to 10000 nM; at XIAP-BIR3, 15.8 to 31.6 nM; on XIAP-BIR2 (FRET competition binding), 10000 to 51300 nM. Also, the “cIAP1 BIR3 vs BIR2 separation window” value on cIAP1-BIR3 is recorded as “+++ (10,000>FS>1,000)”. In addition, at cIAP2-BIR3, the “cIAP2 BIR3 vs BIR2 separation window” value is reported as “+++ (10,000>FS>1,000)”. Also, at XIAP-BIR3, the “XIAP BIR3 vs BIR2 separation window” value is reported as “++++ (FS>10,000)”.
`C[C@@H]1CN(CC(=O)N2CC(C)(C)c3[nH]c(=O)c(Cc4ccc(F)cc4)cc32)[C@@H](CN2CCO[C@H](C(=O)NC3CCN(C(=O)[C@@H]4CN(C[C@H]5CN[C@H](C)CN5CC(=O)N5CC(C)(C)c6[nH]c(=O)c(Cc7ccc(F)cc7)cc65)CCO4)CC3)C2)CN1` [Example 129, (S)-4-(((2R,5R)-1-(2-(6-(4-fluorobenzyl)-3,3-dimethyl-5-oxo-2,3,4,5-tetrahydro-1H-pyrrolo[3,2-b]pyridin-1-yl)-2-oxoethyl)-5-methylpiperazin-2-yl)methyl)-N-(1-((S)-4-(((2R,5R)-1-(2-(6-(4-fluorobenzyl)-3,3-dimethyl-5-oxo-2,3,4,5-tetrahydro-1H-pyrrolo[3,2-b]pyridin-1-yl)-2-oxoethyl)-5-methylpiperazin-2-yl)methyl)morpholine-2-carbonyl)piperidin-4-yl)morpholine-2-carboxamide]: the EC50 in test [1] is 0.49 to 12.6 nM. Further, the IC50 is 7.94 to 15.8 nM at cIAP1-BIR3; 22.4 to 1000 nM on cIAP1-BIR2; 7.94 to 15.8 nM at cIAP2-BIR3; 1000 to 3160 nM on cIAP2-BIR2; 15.8 to 31.6 nM at XIAP-BIR3; 10000 to 51300 nM at XIAP-BIR2 (FRET competition binding). Further, the “cIAP1 BIR3 vs BIR2 separation window” value at cIAP1-BIR3 is recorded as “++ (1,000>FS>100)”. For the same molecule, the “cIAP2 BIR3 vs BIR2 separation window” value on cIAP2-BIR3 is “+++ (10,000>FS>1,000)”. For the same molecule, the “XIAP BIR3 vs BIR2 separation window” value on XIAP-BIR3 is “++++ (FS>10,000)”.
For `C[C@@H]1CN(CC(=O)N2CC(C)(C)c3[nH]c(=O)c(Cc4ccc(F)cc4)cc32)[C@@H](CN2CCC(CN(C)C(=O)Cc3ccc(CC(=O)N(C)CC4CCN(C[C@H]5CN[C@H](C)CN5CC(=O)N5CC(C)(C)c6[nH]c(=O)c(Cc7ccc(F)cc7)cc65)CC4)cc3)CC2)CN1` [Example 99, 2,2′-(1,4-phenylene)bis(N-((1-(((2R,5R)-1-(2-(6-(4-fluorobenzyl)-3,3-dimethyl-5-oxo-2,3,4,5-tetrahydro-1H-pyrrolo[3,2-b]pyridin-1-yl)-2-oxoethyl)-5-methylpiperazin-2-yl)methyl)piperidin-4-yl)methyl)-N-methylacetamide)], the EC50 in test [1] is 63.1 to 316 nM. Further, the IC50 on cIAP1-BIR3 was 1.38 to 7.94 nM; on cIAP1-BIR2 it was 3160 to 10000 nM; on cIAP2-BIR3, 7.94 to 15.8 nM; on cIAP2-BIR2, 3160 to 10000 nM; at XIAP-BIR3, 7.94 to 15.8 nM; at XIAP-BIR2 (FRET competition binding), 10000 to 51300 nM. The “cIAP1 BIR3 vs BIR2 separation window” value on cIAP1-BIR3 is recorded as “+++ (10,000>FS>1,000)”. Moreover, the “cIAP2 BIR3 vs BIR2 separation window” value on cIAP2-BIR3 is given as “+++ (10,000>FS>1,000)”. The “XIAP BIR3 vs BIR2 separation window” value on XIAP-BIR3 was “++++ (FS>10,000)”.
Turning to `C[C@@H]1CN(CC(=O)N2CC(C)(C)c3[nH]c(=O)c(Cc4ccc(F)cc4)cc32)[C@@H](CN2CCO[C@H](C(=O)NCc3cccc(CNC(=O)[C@@H]4CN(C[C@H]5CN[C@H](C)CN5CC(=O)N5CC(C)(C)c6[nH]c(=O)c(Cc7ccc(F)cc7)cc65)CCO4)c3)C2)CN1` [Example 122, (2S,2'S)-N,N′-(1,3-phenylenebis(methylene))bis(4-(((2R,5R)-1-(2-(6-(4-fluorobenzyl)-3,3-dimethyl-5-oxo-2,3,4,5-tetrahydro-1H-pyrrolo[3,2-b]pyridin-1-yl)-2-oxoethyl)-5-methylpiperazin-2-yl)methyl)morpholine-2-carboxamide)], the EC50 in test [1] is 12.6 to 63.1 nM. The IC50 at cIAP1-BIR3 was 7.94 to 15.8 nM; on cIAP1-BIR2, 1000 to 3160 nM; at cIAP2-BIR3, 7.94 to 15.8 nM; on cIAP2-BIR2, 1000 to 3160 nM; at XIAP-BIR3, 15.8 to 31.6 nM; on XIAP-BIR2 (FRET competition binding), 10000 to 51300 nM. Also, at cIAP1-BIR3, the “cIAP1 BIR3 vs BIR2 separation window” value is “++ (1,000>FS>100)”. Also, the “cIAP2 BIR3 vs BIR2 separation window” value on cIAP2-BIR3 was “+++ (10,000>FS>1,000)”. In addition, on XIAP-BIR3, the “XIAP BIR3 vs BIR2 separation window” value was “++++ (FS>10,000)”.

The record behind these values is patent US20250326771A1, “PIPERAZINE DERIVATIVES USEFUL IN HIV THERAPY” (VIIV HEALTHCARE COMPANY, priority 2022, published 2025).
